Reference: patent US11384106B2, “Metal tricarbonyl complexes comprising substituted iminodiactic acid ligands and uses as radioisotope tracers” (priority 2015, dated 2022)

How the values were obtained:
[1] = relative to ^131I-OIH; cited from earlier work
[2] = Stability of ^18F radiotracer solution (pH 7) by HPLC; format: physicochemical; settings: incubated for 23 hours
Protocol: Re(CO)3(^18FFEDA) (3) was prepared by reacting the corresponding tosyl precursor, rheniumtricarbonyl-N-ethyltosylate iminodiacetate, Re(CO)3(TsDA), with [18F]fluoride ion (^18F) in anhydrous acetonitrile in the presence of K2CO3 and Kryptofix 222 at 110° C. for 20 min in a chemical processing control unit (CPCU). The resulting radiolabeled product was purified by semi-preparative high performance liquid chromatography (HPLC) using a Waters XTerra Prep RP 18 column (5 jam, 19×100 mm) and eluted with a mobile phase of 0.05 M triethylammonium phosphate (TEAP) buffer (pH=7)/ethanol (80:20 v/v) at a flow rate of 6 mL/min. The solution of the ^18F radiotracer (pH 7) was analyzed by HPLC for stability for up to 23 h.

[3] = system: erythrocyte; test: Erythrocyte uptake (RCB) from 10 min blood samples; format: in vitro ADME; settings: rats
Protocol: (§1) ^99mTc(CO)^3(FEDA) was evaluated in rats using ^131I-OIH as an internal control; urine was analyzed for metabolites. Plasma protein binding (PPB) and erythrocyte uptake (RCB) were determined from the 10 min blood samples. The Re(CO)3 analog was prepared for structural characterization.

[4] = system: plasma protein; test: Plasma protein binding (PPB) from 10 min blood samples; format: in vitro ADME; settings: rats
Protocol: as §1

[5] = Stability of ^99mTc tracer at physiological pH / physiological conditions
[6] = Evaluation in rats using ^131I-OIH as internal control (blood clearance, renal excretion, urine metabolites); format: in vivo; settings: for % injected dose in the urine, as % of that of ^131I-OIH: relative to ^131I-OIH internal control
Protocol: as §1

## O=C([O-])CN=C([O-])CN=C([O-])CN=C([O-])C[S-].[O-2].[Tc+4] [^99mTc-MAG3, ^99mTc-mercaptoacetyltriglycine]
[1]
  Clearance compared to ^131I-OIH: 50-65%

## Re(CO)3(N-(2-^18fluoroethyl)iminodiacetate) [Re(CO)3(^18FFEDA)]
[2]
  Stability by HPLC analysis after incubation: only intact

## ^99mTc(CO)3(N-(2-fluoroethyl)iminodiacetate) [^99mTc(CO)3(FEDA)]
[3]
  Erythrocyte uptake (RCB): 20%
[4]
  Plasma protein binding (PPB): 61%
[5]; physiological conditions
  Stability (time stable): at least 1 d
[5]; physiological pH
  Stability (time stable): ≥ 24 h
[6]; compared with gold standard ^131I-OIH
  Clearance compared with ^131I-OIH: comparable to the gold standard
[6]; rat studies, compared with ^99mTc-MAG3
  Renal excretion: rapid renal excretion
[6]; rats
  Blood clearance: rapid blood clearance
  Specificity for renal excretion: high specificity for renal excretion
  Uptake in other organs: lack of significant uptake in other organs
[6]; rats, 10 min after injection
  % injected dose in the urine, as % of that of ^131I-OIH: 100%
[6]; rats, 60 min after injection
  % injected dose in the urine, as % of that of ^131I-OIH: 99%
[6]; rats, urine analyzed for metabolites
  Metabolites in urine (form in which the tracer is excreted): secreted intact in the urine
